# Data: patent US9642897B2, “Treatment of bone diseases” (THE UNIVERSITY OF SYDNEY, priority 2011, dated 2017)
# “Also recorded” adds a separate entry of the source.
# Columns and labels:
# [1] = test system: bone marrow stromal cells (BMSC) from IDO-1 KO and WT mice; assay: Osteogenic differentiation of BMSC from IDO-1 KO and WT mice (alizarin red); format: cell-based; settings: vs vehicle
# Protocol: One side tibiae from 9-month-old IDO-1^−/− and IDO-1^+/+ mice (n=6 per group) were flushed using a 21-gauge needle attached to a 10 ml syringe filled with Dulbecco's modified Eagle's medium (DME) (GIBCO BRL, Gaithersburg, Md., USA). The bone marrow cells were filtered through a cell strainer with a 70-micron nylon mesh (BD Bioscience, Bedford, Mass., USA) and plated in 10 cm^2 tissue culture dishes. The cells were incubated in growth medium at 37° C. with 5% humidified CO2 and isolated by their adherence to tissue culture plastic. Medium was aspirated and replaced with fresh medium every 2 to 3 days to remove non-adherent cells. The adherent MSC were grown to confluency for about 7 days and defined as MSC at passage 0, harvested with 0.25% trypsin and 1 mM EDTA for 5 min at 37° C., diluted 1:3 in growth medium, plated and grown to confluency for further expansion. After 2nd and 3rd passages, MSC were used for subsequent experiments.
# To induce differentiation, a total of 10^4 cells were diluted in osteogenic medium and plated in 24 dishes per group in the presence or absence of either quinolinic or picolinic acid. Media was aspirated and replaced with fresh osteogenic medium every 3 days. At 21 days, medium was removed and cultures were fixed in 10% v/v formol/saline solution for 5 min. Cultures were stained with Alizarin Red, which was then extracted and quantified at 570 nm.
# [2] = test system: bone marrow stromal cells (BMSC); assay: Ex vivo cultures of BMSC from PA-treated mice (alizarin red, ALP, CFU-OB); format: in vivo, C57BL/6 mice
# Protocol: To establish adherent bone marrow cultures, both tibiae from PA- and vehicle-treated animals (n=6 per group) were flushed using a 21-gauge needle attached to a 10 ml syringe filled with Dulbecco's modified Eagle's Medium (DMEM) (GIBCO BRL, Gaithersburg, Md., USA). Cells from both tibiae were filtered through a cell strainer with 70-micron nylon mesh (BD Bioscience, Bedford, Mass., USA) and then combined to produce a volume of 2 ml containing ˜10^7 cells/ml. Six-well plate cultures were then established in triplicate, with each well containing a 100-μl aliquot of cell suspension combined with 4 ml of fresh -MEM medium. […]
# To induce differentiation, a total of 10^4 cells were diluted in osteogenic medium (prepared with DMEM, 10% FCS, […] dexamethasone, 10 mmol/L β glycerol phosphate and 50 μg/mL ascorbic acid) and plated in six well plates. […] For alkaline phosphatase quantification, the colonies with more than 10% of cells staining positive for ALP were considered as colony forming units-osteoblasts (CFU-OB). For alizarin red quantification, matrix mineralization was quantified by extracting the Alizarin red staining with 100 mM cetypyridinium chloride (Sigma, St. Louis, Mo., USA) at room temperature for 3 h. The absorbance of the extracted Alizarin red S staining was measured at 570 nm.
# Runx2 and OCN = assay: RT-PCR of Runx2 and OCN in bone marrow cells of PA-treated mice; format: in vivo, C57BL/6 mice; settings: all PA-treated groups vs vehicle
# Protocol: Bone marrow cells were flushed and isolated as previously described. Total RNA was extracted from marrow cells using a QIAGEN RNeasy Mini extraction kit following manufacturer's instructions (QIAGEN Pty, Doncaster, VIC, Australia; cat#74104). First strand complementary DNA (cDNA) synthesis was performed using 200 ng of total RNA, 50 ng random hexamers and 50 units reverse transcriptase at 42° C. for 1 hour, as described by manufacturer (Bioline Australia Pty, Alexandria, NSW, Australia; cat# BIO-65025). Real-time PCR for expressed genes as markers for osteogenesis was performed in duplicate in a total reaction volume of 25 μl, 10% of which was cDNA (or water for non-template control), 3 mM MgCl2 and 250 nM of each forward and reverse specific primer for target genes and normalizer. Primers for specific detection of mRNA expression included: […]
# All PCRs were performed in a Corbett Rotor-Gene™ 3000 (QIAGEN Pty) using SYBR green with no-ROX reaction mix and a standard thermal profile as described by supplier (Bioline Australia Pty, Alexandria, NSW, Australia; cat# QT6750-02). Quantitative RT-PCR data was defined by threshold cycle (Ct) normalized for the housekeeping gene glyceraldehyde-3-phosphate dehydrogenase (GAPDH): […]
# RUNX2, OCN and OPN = assay: Osteogenic gene expression (RUNX2, OCN, OPN) in differentiating MSC; format: cell-based, human
# Protocol: (§1) Subsequently, the effect of chemical inhibition/stimulation of the intermediate and end products of kynurenine activation on osteogenic differentiating MSC was then characterised.
# These compounds were added to the MSC media on day one of differentiation. […] Media was changed every three days. […]
# [3] = test system: mesenchymal stem cells (MSC); assay: Mineralization (alizarin red staining) of osteogenic differentiating MSC; format: cell-based, human; settings: MSC in OIM, 2 weeks
# Protocol: Human mesenchymal stem cells (MSC) (BioWhittaker, Walkersville, Md., USA) were plated at a density of 5×10^5 cells per well in 150 cm^2 dishes containing MSC growth medium (GM) (BioWhittaker, Walkersville, Md., USA) with 10% fetal calf serum (FCS) and incubated at 37° C. After the cells reached 60% confluence, media was replaced with either GM or osteoblastogenesis induction media (OIM) (prepared with MSCGM, 10% FCS, […] dexamethasone, 10 mmol/L β glycerol phosphate and 50 μg/mL ascorbic acid) for 21 days. Media was changed every three days. Media obtained at the beginning of the 1st, 2nd and 3rd wk of differentiation as well as conditioned media were collected for measurement of IFNγ. Concentrations of IFNγ in the conditioned media were measured from both GM and OM treated cells using Human […] DuoSet ELISA Development Kit (R&D Systems, Minneapolis, Mich., USA). To compare between the osteogenic and the immune effect of IFNγ, Jurkat cells and human T lymphocytes were plated at a density of 5×10^5 cells per well in 150 cm^2 dishes containing RPMI media.
# as §1
# These compounds were added to the MSC media on day one of differentiation. Cells were treated for […]. Media was changed every three days. After three weeks of treatment, osteoblastogenesis and changes in osteogenic genes were quantified as described above.
# [4] = highest dose (100 μM), 14 days post-induction
compound,measurement,setting,value
"O=C(O)c1ccccn1 [PA, pyridine-2-carboxylic acid]",mineralisation (alizarin red staining),[1],higher levels of mineralisation
same,"capacity to mineralise (alizarin red), ex vivo BMSC","[2]; SHAM and OVX mice treated 6 weeks, 2 weeks culture in osteogenic media",significantly capacity to mineralise
same,number of colony forming units-osteoblasts (CFU-OB),[2]; cultures from PA-treated vs vehicle treated mice,significantly higher
same,mRNA levels of osteogenic genes Runx2 and OCN,Runx2 and OCN,higher levels
same,"relative gene expression of RUNX2, OCN and OPN","RUNX2, OCN and OPN; differentiating MSC",increased
same,RE of RUNX2,"RUNX2, OCN and OPN; [4]",1.43
same,RE of osteocalcin,"RUNX2, OCN and OPN; [4]",1.93
same,RE of osteopontin,"RUNX2, OCN and OPN; [4]",1.35
same,osteoblastogenesis / mineralisation (alizarin red),[3],accelerated mineralisation; also recorded: stimulate osteoblastogenesis
